The test system of test [1] is Philadelphia Positive Z119 Acute Lymphoblastic Leukemia Cells. Kind of test: Killing of Philadelphia positive Z119 acute lymphoblastic leukemia cells in culture (colony assay in methylcellulose). In kind it is cell-based. The following applies: colonies of more than 20 cells counted at 7-9 days, no exogenous growth factors, read-out: ALL (Z 119) IC50. How it is done: Z119 cells were plated in 1 ml volumes at a density of 5×10^4 cells/ml, in the absence of exogenous growth factors, into 35 mm petri dishes (Nunc, Gibco) containing IMDM (OCI, Toronto) plus 20% FCS (Cansera Rexdale, ON.) in 0.9% (vol/vol) methylcellulose (Fluka, Switzerland) with the indicated concentration of for various test compounds described above. Cultures were set at 37° C., 5% CO2 in a humidified atmosphere. Colonies consisting of more than 20 cells were counted at 7-9 days using an inverted microscope.

Test [2] concerns normal bone marrow cells (BFU-E colonies). Kind of test: Effect upon normal bone marrow differentiation in culture (CFU-GEMM assay, BFU-E colonies). In kind it is cell-based. The following applies: Bone marrow cell, 336 h, BFU-E colonies evaluated at 14 days, read-out: NBM (BFU-E) IC50. On the procedure: The CFU-GEMM assay was performed according to Fauser and Messner (1978, Blood, 52(6) 143-8) and Messner and Fausser (1980, Blut, 41(5) 327-33) with some variations. In brief, heparinized bone marrow cells were layered over Percoll (1.077 gm/ml) (Pharmacia Fine Chemical, Piscataway N.J.) and centrifuged at 400 g at 4° C. for 10 minutes to remove neutrophils and RBCs. The fractionated BM cells at […] were cultured in IMDM (OCI, Toronto) containing 0.9% (vol/vol) methylcellulose supplemented with 30% FCS (Cansera Rexdale, ON.) or normal human plasma, a cocktail of cytokines containing G-CSF (10 ng/ml, Amgen), IL-3 (40 U/ml, Immunex), MGF (50 ng/ml, Immunex), Erythropoietin (2 u/ml, Epprex) or TPO (10 ng/ml, Amgen), 5×10^−5 M Bβ-2-mercaptoethanol and the specified concentration of CR4. The culture mixture was plated in 1 ml volumes into 35 mm petri dishes and incubated at 37° C., 5% CO2 in a humidified atmosphere. All cultures were evaluated at 14 days for the number of BFU-E colonies (defined as aggregates of more than 500 hemoglobinized cells or, 3 or more erythroid subcolonies), CFU-GM colonies (defined as granulocyte or monocyte-macrophage cells or both), CFU-Meg colonies (comprising 4 or more megakaryocytes) and CFU-GEMM colonies (a mixed population comprising of all elements).

Where only a bound is given, the exact number is not on record here.

One may read the IC50 as the point on the concentration scale where inhibition reaches its midpoint.

Turning to `COc1cc(/C=C/C=C/C(=O)NCc2ccccc2)ccc1O` [CRD-81, 5-(4-Hydroxy-3-methoxyphenyl)-penta-2E,4E-dienoic acid benzylamide], the values for the IC50 in test [1] and in test [2] were more than 1000 nM and more than 10000 nM, respectively.

Take `O=C(/C=C/C=C/c1ccc(O)c(O)c1)NCc1ccccc1` [CRD-82, 5-(3,4-Dihydroxyphenyl)-penta-2E,4E-dienoic acid benzylamide]: the IC50 in test [1] is 460 nM; in test [2] it was more than 25000 nM.

For the molecule `COc1cc(/C=C/C=C/C(=O)NCc2ccc(O)c(O)c2)cc(OC)c1O` [CRD-84, 5-(4-Hydroxy-3,5-dimethoxyphenyl)-penta-2E,4E-dienoic acid 3,4-dihydroxybenzylamide], the IC50 in test [1] is more than 1000 nM; in test [2], more than 10000 nM.

On to `COc1cc(/C=C/C=C/C(=O)NCc2ccc(O)c(O)c2)ccc1O` [CRD-85, 5-(4-Hydroxy-3-methoxyphenyl)-penta-2E,4E-dienoic acid 3,4-dihydroxybenzylamide], for which the IC50 was more than 1000 nM in test [1] and more than 10000 nM in test [2].

The values are drawn from patent publication US7407989B2, “Compounds useful for modulating abnormal cell proliferation” (The Hospital for Sick Children, priority 2004, dated 2008).
